Results: patent US12145927B2 (BRISTOL-MYERS SQUIBB COMPANY, priority 2018, dated 2024)

target: T1, human IDO1 (Homo sapiens, UniProt P14902); test: IDO inhibition assay in human IDO1/HEK293 cells (IDO1 HEK Human); type: cell-based; conditions: HEK293 cells stably expressing human IDO1; 20 hours incubation; absorbance at 490 nm after Ehrlich reagent
T1 construct: expressed in transfected cells
Procedure, shortened: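 HEK293 clones stably expressing human IDO1 (10,000 cells/well, phenol red-free RPMI, 10% FBS) were treated with compound for 20 hours at 37° C. After 0.2% TCA and 30 min at 50° C., kynurenine was read with Ehrlich reagent at 490 nm. IC50 was normalised to DMSO (0%) and 500 nM reference standard (100%).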

T1 sequence (P14902 whole entry): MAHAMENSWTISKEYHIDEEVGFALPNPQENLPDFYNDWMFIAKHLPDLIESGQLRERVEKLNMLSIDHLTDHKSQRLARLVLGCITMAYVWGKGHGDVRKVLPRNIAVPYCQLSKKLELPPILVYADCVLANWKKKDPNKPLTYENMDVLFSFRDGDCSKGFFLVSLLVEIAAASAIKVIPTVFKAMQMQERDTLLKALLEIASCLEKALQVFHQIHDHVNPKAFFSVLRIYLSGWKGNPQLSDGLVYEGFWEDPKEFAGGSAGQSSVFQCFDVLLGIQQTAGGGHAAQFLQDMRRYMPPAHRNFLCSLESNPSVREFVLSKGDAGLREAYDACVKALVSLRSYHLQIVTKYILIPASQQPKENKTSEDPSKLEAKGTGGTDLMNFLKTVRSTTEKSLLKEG

SMILES	IC50 [nM]
Cc1csc(NC(=O)Nc2cc(-c3ccccc3-c3nnn[nH]3)cc3c2OCCCC3c2ccccc2)n1 (centres unmarked) [Example 12, 1-(7-(2-(1H-tetrazol-5-yl)phenyl)-5-phenyl-2,3,4,5-tetrahydrobenzo[b]oxepin-9-yl)-3-(4-methylthiazol-2-yl)urea]	1070
Cc1cc(NC(=O)Nc2cc(-c3ccccc3-c3nnn[nH]3)cc3c2OCCCC3c2ccccc2)no1 (centres unmarked) [Example 15, 1-(7-(2-(1H-tetrazol-5-yl)phenyl)-5-phenyl-2,3,4,5-tetrahydrobenzo[b]oxepin-9-yl)-3-(5-methylisoxazol-3-yl)urea]	232
O=C(Nc1nc2ccccc2s1)Nc1cc(-c2ccccc2-c2nnn[nH]2)cc2c1OCCCC2c1ccccc1 (centres unmarked) [Example 18, 1-(7-(2-(1H-tetrazol-5-yl)phenyl)-5-phenyl-2,3,4,5-tetrahydrobenzo[b]oxepin-9-yl)-3-(benzo[d]thiazol-2-yl)urea]	950
O=C(Nc1ccc(F)cc1F)Nc1cc(-c2ccccc2-c2nnn[nH]2)cc2c1OCCCC2c1ccccc1 (centres unmarked) [Example 21, 1-(7-(2-(1H-tetrazol-5-yl)phenyl)-5-phenyl-2,3,4,5-tetrahydrobenzo[b]oxepin-9-yl)-3-(2,4-difluorophenyl)urea]	177
Cc1ccc(CC(=O)Nc2cc(-c3ccccc3-c3nnn[nH]3)cc3c2OCCCC3C)cc1 (centres unmarked) [Example 32, N-(7-(2-(1H-tetrazol-5-yl)phenyl)-5-methyl-2,3,4,5-tetrahydrobenzo[b]oxepin-9-yl)-2-(p-tolyl)acetamide]	419
FC(F)(F)c1cnc(Nc2cc(-c3ccccc3-c3nnn[nH]3)cc3c2OCCCC3c2ccccc2)nc1 (centres unmarked) [Example 54, N-(7-(2-(1H-tetrazol-5-yl)phenyl)-5-phenyl-2,3,4,5-tetrahydrobenzo[b]oxepin-9-yl)-5-(trifluoromethyl)pyrimidin-2-amine]	432
COC(=O)c1c(OC)cccc1-c1cc(NC(=O)Nc2ccc(C)cc2)c2c(c1)C(c1ccccc1)CCCO2 (centres unmarked) [Example 65, methyl 2-methoxy-6-(5-phenyl-9-(3-(p-tolyl)ureido)-2,3,4,5-tetrahydrobenzo[b]oxepin-7-yl)benzoate]	381
COC(=O)c1c(C)cccc1-c1cc(NC(=O)Nc2ccc(C)cc2)c2c(c1)C(c1ccccc1)CCCO2 (centres unmarked) [Example 66, methyl 2-methyl-6-(5-phenyl-9-(3-(p-tolyl)ureido)-2,3,4,5-tetrahydrobenzo[b]oxepin-7-yl)benzoate]	327
Cc1ccc(NC(=O)Nc2cc(-c3ccccc3-c3nnn[nH]3)cc3c2OC(C)(C)C3)cc1 [Example 120, 1-(5-(2-(1H-Tetrazol-5-yl)phenyl)-2,2-dimethyl-2,3-dihydrobenzofuran-7-yl)-3-(p-tolyl)urea]	460

Results, then the molecule that gave them:

IC50 [nM]	SMILES
70.8	Cc1ccc(NC(=O)Nc2cc(-c3ccccc3-c3nnn[nH]3)cc3c2OCCCC3C)cc1 (centres unmarked) [Example 31, 1-(7-(2-(1H-tetrazol-5-yl)phenyl)-5-methyl-2,3,4,5-tetrahydrobenzo[b]oxepin-9-yl)-3-(p-tolyl)urea]
70	O=C(Nc1ccc(C2CC2)cc1F)Nc1cc(-c2ccccc2-c2nnn[nH]2)cc2c1OCCCC2c1ccccc1 (centres unmarked) [Example 6, 1-(7-(2-(1H-tetrazol-5-yl)phenyl)-5-phenyl-2,3,4,5-tetrahydrobenzo[b]oxepin-9-yl)-3-(4-cyclopropyl-2-fluorophenyl)urea]
53	Cc1ccc(NC(=O)Nc2cc(-c3ccccc3-c3nnn[nH]3)cc3c2OCCCC3c2ccccc2)nc1 (centres unmarked) [Example 17, 1-(7-(2-(1H-tetrazol-5-yl)phenyl)-5-phenyl-2,3,4,5-tetrahydrobenzo[b]oxepin-9-yl)-3-(5-methylpyridin-2-yl)urea]
40.8	Cc1ccc(NC(=O)Nc2cc(-c3ccccc3C(N)=O)cc3c2OCCCC3c2ccccc2)cc1 (centres unmarked) [Example 7, 2-(5-phenyl-9-(3-(p-tolyl)ureido)-2,3,4,5-tetrahydrobenzo[b]oxepin-7-yl)benzamide]
40	C=C[C@H]1Oc2c(NC(=O)Nc3ccc(C)cc3)cc(-c3ccccc3-c3nnn[nH]3)cc2[C@@H]1CCC(F)(F)F (single isomer, unassigned) [Example 130, 1-((trans)-5-(2-(1H-tetrazol-5-yl)phenyl)-3-(3,3,3-trifluoropropyl)-2-vinyl-2,3-dihydrobenzofuran-7-yl)-3-(p-tolyl)urea]
28.2	O=C(Nc1ccccc1F)Nc1cc(-c2ccccc2-c2nnn[nH]2)cc2c1OCCCC2c1ccc(F)cc1 (centres unmarked) [Example 70, 1-(7-(2-(1H-tetrazol-5-yl)phenyl)-5-(4-fluorophenyl)-2,3,4,5-tetrahydrobenzo[b]oxepin-9-yl)-3-(2-fluorophenyl)urea]
26.4	Fc1ccc2oc(Nc3cc(-c4ccccc4-c4nnn[nH]4)cc4c3OCCCC4C3CC3)nc2c1 (centres unmarked) [Example 27, N-(7-(2-(1H-tetrazol-5-yl)phenyl)-5-cyclopropyl-2,3,4,5-tetrahydrobenzo[b]oxepin-9-yl)-5-fluorobenzo[d]oxazol-2-amine]
19.7	O=C(Nc1ccccc1F)Nc1cc(-c2ccccc2-c2noc(=O)[nH]2)cc2c1OCCCC2C1CC1 (centres unmarked) [Example 35, 1-(5-cyclopropyl-7-(2-(5-oxo-4,5-dihydro-1,2,4-oxadiazol-3-yl)phenyl)-2,3,4,5-tetrahydrobenzo[b]oxepin-9-yl)-3-(2-fluorophenyl)urea]
16	C=C[C@H]1Oc2c(NC(=O)Nc3ccc(C)cc3)cc(-c3ccccc3-c3nnn[nH]3)cc2[C@@H]1CCC(F)(F)F (single isomer, unassigned) [Example 129, 1-((trans)-5-(2-(1H-tetrazol-5-yl)phenyl)-3-(3,3,3-trifluoropropyl)-2-vinyl-2,3-dihydrobenzofuran-7-yl)-3-(p-tolyl)urea]
7.1	C=C[C@@H]1Oc2c(NC(=O)Nc3ccc(C)cc3)cc(-c3ccccc3-c3nnn[nH]3)cc2[C@H]1CCC(F)(F)F (single isomer, unassigned) [Example 101, 1-((trans)-5-(2-(1H-tetrazol-5-yl)phenyl)-3-(3,3,3-trifluoropropyl)-2-vinyl-2,3-dihydrobenzofuran-7-yl)-3-(p-tolyl)urea]
2.6	Fc1cccc2oc(Nc3cc(-c4ccccc4-c4nnn[nH]4)cc4c3OCCCC4C3CC3)nc12 (centres unmarked) [Example 28, N-(7-(2-(1H-tetrazol-5-yl)phenyl)-5-cyclopropyl-2,3,4,5-tetrahydrobenzo[b]oxepin-9-yl)-4-fluorobenzo[d]oxazol-2-amine]

target: T2, indoleamine 2,3-dioxygenase (IDO) (Homo sapiens, UniProt P14902); test: HeLa cell-based indoleamine 2,3-dioxygenase (IDO) assay (IDO1 HeLa); conditions: HeLa cells, IFNγ 25 ng/mL, 48 hour incubation; kynurenine by absorbance at 480 nm
T2 construct: replaced with media containing IFNγ (#285-IF/CF, R&D Systems) at a final concentration of 25 ng/mL; endogenous in cells; host or cells: HeLa (ATCC CCL-2), IFNγ-stimulated
T2 sequence (P14902 whole entry): as above
Protocol: Assessment of inhibitor activity in HeLa cell-based indoleamine 2,3-dioxygenase (IDO) assay:
HeLa (ATCC® CCL-2) cells were obtained from the ATCC® and cultured in Dulbecco's Modified Eagle Medium supplemented with 4.5 g/L glucose, […] (#10-013-CV, Corning), 2 mM L-alanyl-L-glutamine dipeptide (#35050-061, Gibco), 100U/mL penicillin, 100 μg/mL streptomycin (#SV30010, HyClone) and 10% fetal bovine serum (#SH30071.03 HyClone). Cells were maintained in a humidified incubator at 37° C. in 5% CO2.
IDO activity was assessed as a function of kynurenine production as follows: HeLa cells were seeded in a 96-well culture plate at a density of 5,000 cells/well and allowed to equilibrate overnight. After 24 hours, the media was aspirated and replaced with media containing IFNγ (#285-IF/CF, R&D Systems) at a final concentration of 25 ng/mL. A serial dilution of each test compound was added to the cells in a total volume of 200 μL of culture medium. After a further 48 hour incubation, 170 μL of supernatant was transferred from each well to a fresh 96-well plate. 12.1 μL of 6.1N trichloroacetic acid (#T0699, Sigma-Aldrich) was added to each well and mixed, followed by incubation at 65° C. for 20 minutes to hydrolyze N-formylkynurenine, the product of indoleamine 2,3-dioxygenase, to kynurenine. The reaction mixture was then centrifuged for 10 mins at 500×g to sediment the precipitate. 100 μL of the supernatant was transferred from each well to a fresh 96-well plate. 100 μl of 2% (w/v) p-dimethylaminobenzaldehyde (#15647-7, Sigma-Aldrich) in acetic acid (#A6283, Sigma-Aldrich) was added to each well mixed and incubated at RT for 20 mins. Kynurenine concentrations were determined by measuring absorbance at 480 nm and calibrating against an L-kynurenine (#K8625, Sigma-Aldrich) standard curve using a SPECTRAMAX® M2e microplate reader (Molecular Devices). The percentage activity at each inhibitor concentration was determined and IC50 values assessed using nonlinear regression.

IC50 [nM]	SMILES
10.9	Cc1ccc(NC(=O)Nc2cc(-c3ccccc3-c3nn[nH]n3)cc3c2OCC=CC3c2ccccc2)cc1 (racemic) [Example 87, (+/−)-1-(7-(2-(1H-tetrazol-5-yl)phenyl)-5-phenyl-2,5-dihydrobenzo[b]oxepin-9-yl)-3-(p-tolyl)urea]
7.2	CC1=CC(c2ccccc2)c2cc(-c3ccccc3-c3nnn[nH]3)cc(NC(=O)Nc3ccc(C)cc3)c2OC1 (racemic) [Example 92, (+/−)-1-(7-(2-(1H-tetrazol-5-yl)phenyl)-3-methyl-5-phenyl-2,5-dihydrobenzo[b]oxepin-9-yl)-3-(p-tolyl)urea]
54.7	O=C(Nc1ccc(Cl)cc1F)Nc1cc(-c2ccccc2-c2nnn[nH]2)cc2c1OCC=CC2c1ccccc1 (racemic) [Example 105, (+/−)-1-(7-(2-(1H-tetrazol-5-yl)phenyl)-5-phenyl-2,5-dihydrobenzo[b]oxepin-9-yl)-3-(4-chloro-2-fluorophenyl)urea]
30.1	O=C(Nc1ccc(Br)cc1)Nc1cc(-c2ccccc2-c2nnn[nH]2)cc2c1OCC=CC2c1ccccc1 (racemic) [Example 106, (+/−)-1-(7-(2-(1H-tetrazol-5-yl)phenyl)-5-phenyl-2,5-dihydrobenzo[b]oxepin-9-yl)-3-(4-bromophenyl)urea]
14.5	CCc1ccc(NC(=O)Nc2cc(-c3ccccc3-c3nnn[nH]3)cc3c2OCC=CC3CCC(F)(F)F)cc1 (racemic) [Example 107, (+/−)-1-(7-(2-(1H-tetrazol-5-yl)phenyl)-5-(3,3,3-trifluoropropyl)-2,5-dihydrobenzo[b]oxepin-9-yl)-3-(4-ethylphenyl)urea]
164	Cc1ccc(NC(=O)Nc2cc(-c3cc(F)ccc3C(=O)O)cc3c2OCCCC3c2ccccc2)cc1 (racemic) [Example 108, (+/−)-4-fluoro-2-(5-phenyl-9-(3-(p-tolyl)ureido)-2,3,4,5-tetrahydrobenzo[b]oxepin-7-yl)benzoic acid]
